# Data published in patent publication US20030224978A1, “Compounds and methods for modulating apoptosis” (McGill University, priority 1996, published 2003).
# Entries after “also recorded” stand apart in the source; their conditions may differ. Positions of bridges follow the written chain, without caps; N, C: chain ends. Residues, ends and D or L forms follow the SMILES beside them.
# Key:
# in vitro [1] = type: cell-based; conditions: human
# Protocol: (§1) N-Ac-CHAVC-NH2 (SEQ ID NO:10) and the control peptide N-Ac-CHGVC-NH2 (SEQ ID NO:20) were evaluated for possible cytotoxic effects on human microvascular endothelial (HMVEC; Clonetics), human umbilical vein endothelial (HUVEC; ATCC #CRL-1730), IAFp2 (human fibroblast cell line; Institute Armand-Frapier, Montreal, Quebec), WI-38 (human fibroblast cell line; ATCC #CCL-75), MDA-MB231 (human breast cancer cell line; ATCC #HTB-26), and PC-3 (human prostate cancer cell line; ATCC #CRL-1435) cells utilizing the MTT assay (Plumb et al., Cancer Res. 49:4435-4440, 1989). Neither of the peptides was cytotoxic at concentrations up to and including 100 μM. Similarly, neither of the peptides was capable of inhibiting the proliferation of the above cell lines at concentrations up to 100 μM, as judged by ^3H-thymidine incorporation assays.
# in vitro [2] = type: cell-based; conditions: human; remark: listed apart in the source
# Protocol: as §1
# chick N-cadherin = molecular target: T1, chick N-cadherin (Gallus gallus, UniProt P10288); experiment: N-cadherin dependent neurite outgrowth of rat cerebellar neurons on N-cadherin expressing 3T3 cells (Example 14); type: cell-based; conditions: for inhibition at 250 µg/mL: 250 μg/mL
# T1 construct: expressed in transfected cells; host or cells: 3T3 fibroblasts
# T1 sequence (P10288 165-912): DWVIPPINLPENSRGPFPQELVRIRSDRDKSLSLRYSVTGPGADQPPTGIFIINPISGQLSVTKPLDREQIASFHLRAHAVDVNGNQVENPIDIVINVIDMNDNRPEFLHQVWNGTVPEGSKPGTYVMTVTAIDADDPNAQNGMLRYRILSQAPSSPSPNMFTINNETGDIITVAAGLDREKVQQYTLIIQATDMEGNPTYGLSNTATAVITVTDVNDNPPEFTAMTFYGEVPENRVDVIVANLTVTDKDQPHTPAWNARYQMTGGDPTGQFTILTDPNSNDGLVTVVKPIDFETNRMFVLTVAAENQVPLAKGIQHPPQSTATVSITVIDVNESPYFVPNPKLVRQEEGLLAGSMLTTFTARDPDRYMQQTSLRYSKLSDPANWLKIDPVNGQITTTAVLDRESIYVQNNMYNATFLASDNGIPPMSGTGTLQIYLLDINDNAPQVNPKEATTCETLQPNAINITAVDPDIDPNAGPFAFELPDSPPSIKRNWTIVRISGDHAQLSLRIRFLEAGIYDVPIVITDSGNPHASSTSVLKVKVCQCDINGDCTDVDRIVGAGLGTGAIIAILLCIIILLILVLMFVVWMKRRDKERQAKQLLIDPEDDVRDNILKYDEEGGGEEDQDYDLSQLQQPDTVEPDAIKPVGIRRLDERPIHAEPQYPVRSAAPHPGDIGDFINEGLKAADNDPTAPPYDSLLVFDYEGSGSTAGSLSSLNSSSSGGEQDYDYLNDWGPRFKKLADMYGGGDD
# Protocol: (§2) Cell culture and neurite outgrowth assays. Co-cultures of cerebellar neurons on monolayers of control 3T3 cells and monolayers of transfected 3T3 cells that express physiological levels of chick N-cadherin or human L1 were established as previously described (Williams et al., Neuron 13:583-594, 1994). In brief, 80,000 3T3 cells (control and transfected) were plated into individual chambers of an eight-chamber tissue culture slide coated with polylysine and fibronectin and cultured in DMEM/10% FCS. After 24 hours, when confluent monolayers had formed, the medium was removed and 3000 cerebellar neurons isolated from post-natal day 2-3 rats were plated into each well in SATO media (Doherty et al., Nature 343:464-466, 1990) supplemented with 2% FCS. All of the test peptides were added immediately before the neurons as a 2×stock prepared in SATO/2% FCS. The co-cultures were maintained for 16-18 hours, at which time they were fixed and immunostained for GAP-43 which is present only in the neurons and delineates the neuritic processes. The mean length of the longest neurite per cell was measured for 150-200 neurons sampled in replicate cultures as previously described (Williams et al., Neuron 13:583-594, 1994). […] Dose-response curves were evaluated and the EC50 values determined.
# Effects of cyclic HAV peptides on N-cadherin function. The ability of N-Ac-CHAVC-NH2 (SEQ ID NO:10; compound 1) to inhibit neurite outgrowth was initially tested. This cyclic peptide has the cadherin CAR sequence (HAV) and no flanking amino acid residues. Neurons were cultured on confluent monolayers of control (untransfected) and N-cadherin expressing 3T3 cells for 16-18 hours. The cells were then fixed and the length of the longest neurite on 150-200 neurons was determined by standard assay, as described above. FIG. 24 gives the mean neurite length in a representative experiment where cerebellar neurons have been cultured over control and N-cadherin expressing cells. In the absence of peptide, the mean length of the longest neurite per cell was approximately double on the N-cadherin expressing cells, as compared to 3T3 cells. This response requires N-cadherin function in both the neuron and transfected fibroblast.
# [3] = system: bovine pulmonary artery endothelial cells; experiment: Disruption of bovine endothelial cell adhesion; type: cell-based; conditions: 500 μg/ml, 30 minutes
# Protocol: For use within one such assay, bovine pulmonary artery endothelial cells may be harvested by sterile ablation and digestion in 0.1% collagenase (type II; Worthington Enzymes, Freehold, N.J.). Cells may be maintained in Dulbecco's minimum essential medium supplemented with 10% fetal calf serum and 1% antibiotic-antimycotic at 37° C. in 7% CO2 in air. Cultures may be passaged weekly in trypsin-EDTA and seeded onto tissue culture plastic at 20,000 cells/cm^2. Endothelial cultures may be used at 1 week in culture, which is approximately 3 days after culture confluency is established. The cells may be seeded onto coverslips and treated (e.g., for 30 minutes) with modulating agent or a control compound at, for example, 500 μg/ml and then fixed with 1% paraformaldehyde. As noted above, disruption of cell adhesion may be determined visually within 24 hours, by observing retraction of the cells from one another. This assay evaluates the effect of a modulating agent on N-cadherin mediated cell adhesion.
# Bovine pulmonary artery endothelial cells were harvested by sterile ablation and digestion in 0.1% collagenase (type II; Worthington Enzymes, Freehold, N.J.). Cells were maintained in Dulbecco's […] essential medium (Clonetics, San Diego, Calif.) supplemented with 10% fetal calf serum (Atlantic Biologicals, Nor cross, Ga.) and 1% antibiotic-antimycotic at 37° C. in 7% CO2 in air. Cultures were passaged weekly in trypsin-EDTA (Gibco, Grand Island, N.Y.) and seeded onto tissue culture plastic at 20,000 cells/cm^2 for all experiments. Endothelial cultures were used at 1 week in culture, which is approximately 3 days after culture confluency was established. The cells used in all protocols were between 4th passage and 10th passage. The cells were seeded onto coverslips and treated 30 minutes with N-Ac-CHAVC-NH2 (SEQ ID NO:10) or N-Ac-CHGVC-NH2 (SEQ ID NO:20) at 500 μg/ml and then fixed with 1% paraformaldehyde.
# in vitro [4] = type: cell-based; conditions: human; remark: listed apart in the source
# Protocol: as §1
# in vitro [5] = type: cell-based; conditions: human; remark: listed apart in the source
# Protocol: as §1
# L1 = L1 (Homo sapiens, UniProt P32004); experiment: L1 response: neurite outgrowth of rat cerebellar neurons on L1 expressing 3T3 cells (Example 14); type: cell-based; design: expressed in transfected cells; host or cells: 3T3 cells (stably transfected); conditions: 100 μg/mL, concentrations that substantially inhibited the N-cadherin response
# Protocol: FIG. 26 is a bar graph illustrating the effects of the cyclic peptides N-Ac-CHAVDC-NH2 (SEQ ID NO:11), N-Ac-CHAVDIC-NH2 (SEQ ID NO:62) and N-Ac-[…]-NH2 (SEQ ID NO:63) on L1 function. Cerebellar neurons were cultured on monolayers of control 3T3 cells and L1 expressing 3T3 cells for 16-18 hours in control media (unshaded) or control media supplemented with peptides N-Ac-CHAVDC-NH2 (SEQ ID NO:11; diagonal rising right), N-Ac-CHAVDIC-NH2 (SEQ ID NO:62); diagonal cross hatch) or N-Ac-[…]-NH2 (SEQ ID NO:63; diagonal rising left) at a concentration of 100 μg/mL. The cultures were then fixed and neurite outgrowth determined by measuring the length of the longest neurite from a total of 150-200 neurons sampled in replicate cultures for each experimental condition. […] The results are pooled from three independent experiments, and the bars show the s.e.m.
# as §2, with “The co-cultures were maintained for 16-18 hours, at which time they were fixed and immunostained for GAP-43 which is present only in the neurons and delineates the neuritic processes.” left out, “determined. […]” for “determined.”
# [6] = system: angiogenesis in chick embryonic chorioallantoic membranes; experiment: Chick chorioallantoic membrane angiogenesis assay; type: in vivo; conditions: for percent inhibition of angiogenesis: 24 hours
# Protocol: The chick chorioallantoic membrane assay was used to assess the effects of cyclic peptides on angiogenesis (Iruela-Arispe et al., Molecular Biology of the Cell 6:327-343, 1995). Cyclic peptides were embedded in a mesh composed of vitrogen at concentrations of 3, 17, and 33 μg/mesh. The meshes were then applied to 12-day-old chick embryonic chorioallantoic membranes. After 24 hours, the effects of the peptides on angiogenesis were assessed by computer assisted morphometric analysis.
# For each concentration of cyclic peptide, the percent inhibition of angiogenesis (relative to the level of angiogenesis in the absence of cyclic peptide) is provided. Assays were performed in the presence (+) or absence (−) of […] VEGF. For example, the cyclic peptide N-Ac-CHAVC-NH2 (SEQ ID NO:10) inhibited angiogenesis by 46%, 51%, and 51% at concentrations of 3, 17, and 33 μg/mesh, respectively.
# L1, sequence (P32004 20-1257): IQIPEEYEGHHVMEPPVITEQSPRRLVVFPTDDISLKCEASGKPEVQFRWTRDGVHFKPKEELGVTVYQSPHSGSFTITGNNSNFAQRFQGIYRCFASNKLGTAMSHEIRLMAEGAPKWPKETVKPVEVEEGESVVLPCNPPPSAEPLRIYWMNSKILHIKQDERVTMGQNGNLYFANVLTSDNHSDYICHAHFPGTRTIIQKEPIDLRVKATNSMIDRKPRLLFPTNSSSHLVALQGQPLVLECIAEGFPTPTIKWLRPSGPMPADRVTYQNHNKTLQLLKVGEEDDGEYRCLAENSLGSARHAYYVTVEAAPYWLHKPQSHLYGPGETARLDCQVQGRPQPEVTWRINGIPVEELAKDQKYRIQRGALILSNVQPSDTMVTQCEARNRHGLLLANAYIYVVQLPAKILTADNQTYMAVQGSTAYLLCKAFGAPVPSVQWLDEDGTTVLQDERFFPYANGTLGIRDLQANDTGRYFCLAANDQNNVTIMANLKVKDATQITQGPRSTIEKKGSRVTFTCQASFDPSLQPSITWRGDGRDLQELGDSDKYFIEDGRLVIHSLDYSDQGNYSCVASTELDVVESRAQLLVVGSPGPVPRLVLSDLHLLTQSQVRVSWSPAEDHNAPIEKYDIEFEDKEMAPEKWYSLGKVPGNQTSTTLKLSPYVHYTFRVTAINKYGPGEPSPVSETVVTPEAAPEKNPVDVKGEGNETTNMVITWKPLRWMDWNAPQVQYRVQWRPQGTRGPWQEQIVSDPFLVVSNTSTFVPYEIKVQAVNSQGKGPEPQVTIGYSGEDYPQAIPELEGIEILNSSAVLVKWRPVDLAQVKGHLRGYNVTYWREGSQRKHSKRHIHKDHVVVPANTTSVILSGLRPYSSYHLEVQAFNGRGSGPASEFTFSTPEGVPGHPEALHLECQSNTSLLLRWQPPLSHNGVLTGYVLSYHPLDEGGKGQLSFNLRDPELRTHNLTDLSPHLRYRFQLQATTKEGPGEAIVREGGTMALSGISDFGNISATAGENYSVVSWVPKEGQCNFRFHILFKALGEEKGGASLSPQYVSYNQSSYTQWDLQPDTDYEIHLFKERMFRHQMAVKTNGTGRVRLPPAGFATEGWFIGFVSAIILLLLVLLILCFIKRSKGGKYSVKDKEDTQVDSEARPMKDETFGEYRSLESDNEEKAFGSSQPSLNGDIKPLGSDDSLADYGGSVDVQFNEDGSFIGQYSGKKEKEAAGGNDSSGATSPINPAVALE
IC50 (in vitro [1]),IC50 (in vitro [2]),"inhibition at 250 µg/mL (chick N-cadherin; NIH3T3, 16-18 hours)",IC50 (in vitro [4]),IC50 (in vitro [5]),"inhibition at 125 µg/mL (chick N-cadherin; NIH3T3, 125 μg/mL, 16-18 hours)",EC50 (chick N-cadherin; from dose-response curve),"reduction in inhibitory activity on flanking HAV with E-cadherin amino acids (chick N-cadherin; Table 8, 250 μg/mL)",SMILES,effect on endothelial cell monolayer / morphology [3],"inhibitory activity on N-cadherin dependent neurite outgrowth, in words (chick N-cadherin; Tables 8 and 9, 250 or 125 μg/mL)",effect on L1 response (neurite outgrowth over L1 expressing 3T3 cells) (L1),"percent inhibition of angiogenesis ([6]; 3 μg/mesh, absence (−) of 0.01 mM VEGF)","percent inhibition of angiogenesis ([6]; 3 μg/mesh, presence (+) of 0.01 mM VEGF)","percent inhibition of angiogenesis ([6]; 17 μg/mesh, absence (−) of 0.01 mM VEGF)","percent inhibition of angiogenesis ([6]; 17 μg/mesh, presence (+) of 0.01 mM VEGF)","percent inhibition of angiogenesis ([6]; 33 μg/mesh, absence (−) of 0.01 mM VEGF)","percent inhibition of angiogenesis ([6]; 33 μg/mesh, presence (+) of 0.01 mM VEGF)","inhibition of angiogenesis, in words ([6]; 3, 17, and 33 μg/mesh)"
> 100 µM,> 100 µM,-5.6 ± 5.9%,> 100 µM,> 100 µM,,,,CC(=O)N[C@H]1CSSC[C@@H](C(N)=O)NC(=O)[C@H](CO)NC(=O)[C@H](CO)NC(=O)[C@H](C(C)C)NC(=O)CNC(=O)[C@H](Cc2c[nH]cn2)NC(=O)[C@H](CO)NC1=O [reference compound] (Ac-CSHGVSSC-NH2; disulfide 1-8),inactive,,,,,,,,,
,,,,,88.3 ± 7.5%,60 µM,,CC[C@H](C)[C@@H]1NC(=O)[C@H](CC(=O)O)NC(=O)[C@H](C(C)C)NC(=O)[C@H](C)NC(=O)[C@H](Cc2c[nH]cn2)NC(=O)[C@@H](NC(C)=O)CSSC[C@@H](C(N)=O)NC1=O [N-Ac-CHAVDIC-NH2] (Ac-CHAVDIC-NH2; disulfide 1-7),,further increased activity; also recorded: potent inhibitors,did not interfere with the ability of neurons to extend neurites over 3T3 cells expressing L1; also recorded: not inhibited,,,,,,,
> 100 µM,> 100 µM,-12.6 ± 6.4%,> 100 µM,> 100 µM,,,complete,CC(=O)N[C@H]1CSSC[C@@H](C(N)=O)NC(=O)[C@H](CO)NC(=O)[C@H](CO)NC(=O)[C@H](C(C)C)NC(=O)[C@H](C)NC(=O)[C@H](Cc2c[nH]cn2)NC(=O)[C@H](CO)NC1=O (Ac-CSHAVSSC-NH2; disulfide 1-8),disrupted the endothelial cell monolayer; also recorded: retracted from one another and round up,,,1%,−3%,−3%,12%,17%,7%,relatively inactive
